Where a name gives a salt, the structure may show the parent alone. Read-outs that look alike come from different tables or passages of the source.
Columns and labels:
[1] = system: TNF-α induced IL-6; experiment: TNF-α-induced IL-6 production determined by IL-6 ELISA; assay type: cell-based; settings: for % IL6 production compare to TNF stimulation of IL6 (100%), Compds tested @ 10 uM HAEC, IL6: 10 uM compound; for activity at 10 µM / inhibition at 10 µM: Homo sapiens, 24 h; for Inflammation Data (result in words): concentration not given
How it was run: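 Human aortic endothelial cells grown to ≥90% confluence, then treated with compounds and stimuli in serum-free medium with 0.2% albumin. Secreted IL-6 in collected media measured by sandwich ELISA (2 ug/ml capture, 200 ng/ml biotinylated detection antibody, streptavidin-HRP), read at 450 nm.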

[2] = system: Human aortic smooth muscle cells; experiment: Smooth muscle cell proliferation assay / anti-proliferation assay (perlecan); settings: for Proliferation Data (result in words): screens at 5 & 10 uM; for activity in anti-proliferation assay (Perlecan), in words: using the same activity scale used in Table 3
Procedure: Human aortic smooth muscle cells (Clonetics) were used. Cells were grown in basal medium containing 5% fetal bovine serum supplemented with growth factors, basic fibroblast growth factor, epidermal growth factor and insulin. […] The cells were then serum starved for 24 h to induce quiescence. Fresh growth medium containing no compound or 10 μM compound was then added and further incubated for 24 h. Cell number was determined by using a cell proliferation assay kit (Celltiter96 AQueous from Promega).

[3] = Table 5, first part, class = % of control IL6 production, read-out: Inhibition of TNF-induced IL6 production
[4] = Homo sapiens, read-out: Activity (note 1), anti-proliferation assay (perlecan)
[5] = Table 5, second part, column 1, class = % of control IL6 production, read-out: Inhibition of TNF-induced IL6, production
[6] = read-out: Inhibition of TNF-induced IL6 production, Table 7, first part
[7] = read-out: Inhibition of TNF-induced IL6 production, Table 7, second part, column 1

SMILES: CCN1CCC[C@@H]1CNc1nc(Nc2ccc(OC)c(F)c2)nc(NC2CCCCCC2)n1 [Compound 140, N^2-cycloheptyl-N^4-((R)-1-ethyl-pyrrolidin-2-ylmethyl)-N^6-(3-fluoro-4-methoxyphenyl)-1,3,5-triazine-2,4,6-triamine]
- % IL6 production compare to TNF stimulation of IL6 (100%), Compds tested @ 10 uM HAEC, IL6 ([1]; HAEC, TNF stimulation = 100%): 12.57%
- activity at 10 µM [1, 3]: 0 to 25%
- IC50 [2, 4]: 3 to 7 µM
- IC50 ([2]; Homo sapiens, read-out: Avg IC-50, anti-proliferation assay (perlecan)): 4 to 5 µM

SMILES: COc1ccc(Nc2nc(NC3CCCCCC3)nc(N3CCN(C)CC3)n2)cc1Cl
- Inflammation Data, activity in words at 5 uM ([1]; 5 uM): not active
- Inflammation Data, cell death at 5 uM ([1]; 5 uM): 25%
- Inflammation Data, cell death at 10 uM ([1]; 10 uM): total cell death
- Proliferation Data, cell morphology (rounding, blunting, morphology change) [2]: blunting androunding
- Proliferation Data (result in words) [2]: Did not pass 5 & 10 uMscreens

SMILES: COc1ccc(Nc2nc(NC3CCCCCC3)nc(OC3CCCN(C(C)=O)C3)n2)cc1Cl (centres unmarked) [drawing 1597]
- Inflammation Data, inhibition at 10 uM ([1]; 10 uM): complete inhibition at 10 uM
- Proliferation Data (result in words) [2]: Not active at 5 & 10 uM

SMILES: COc1ccc(Nc2nc(NC3CCCCCC3)nc(N(C)C3CCN(C)CC3)n2)cc1F [Compound 160, N^2-cycloheptyl-N^4-(3-fluoro-4-methoxyphenyl)-N^6-methyl-N^6-(1-methyl-piperidin-4-yl)-1,3,5-triazine-2,4,6-triamine, hydrogen chloride salt]
- activity at 10 µM ([1]; read-out: % IL6 production compare to TNF stimulation of IL6 (100%), Compds tested @ 10 uM HAEC, IL6): 1%
- activity at 10 µM ([1]; read-out: Inhibition of TNF-induced IL6 production): 0 to 25%
- IC50 ([2]; read-out: Activity (note 1), anti-proliferation assay (perlecan)): 3 to 7 µM
- IC50 ([2]; read-out: Avg IC-50, anti-proliferation assay (perlecan)): 4 to 5 µM

SMILES: COc1ccc(Nc2nc(NC3CCCCCC3)nc(N3CCCC3CO)n2)cc1Cl (centres unmarked)
- Inflammation Data (result in words) [1]: Not Active
- Proliferation Data, cell morphology (rounding, blunting, morphology change) [2]: rounding
- Proliferation Data (result in words) [2]: Did not pass 5 & 10 uMscreens

SMILES: COc1ccc(Nc2nc(NC3CCCCCC3)nc(OC3CCN(C)CC3)n2)cc1Cl
- Inflammation Data, cell death at 10 uM ([1]; 10 uM): total cell death
- Proliferation Data, cell morphology (rounding, blunting, morphology change) [2]: rounding at 5 & 10 uM

SMILES: COc1ccc(Nc2nc(NC3CCCCCC3)nc(N(C)C3CCN(C)CC3)n2)cc1Br [Compound 123, N-(3-Bromo-4-methoxy-phenyl)-N′-cycloheptyl-N″-methyl-N″-(1-methyl-piperidin-4-yl)-[1,3,5]triazine-2,4,6-triamine]
- IC50 [2, 4]: > 7 µM

SMILES: COc1ccc(Nc2nc(NC3CCCCCC3)nc(N(C)C3CCN(C)CC3)n2)cc1F [Compound 167, N^2-cycloheptyl-N^4-(3-fluoro-4-methoxy-phenyl)-N^6-methyl-N^6-(1-methyl-piperidin-4-yl)-1,3,5-triazine-2,4,6-triamine maleate salt]
- % IL6 production compare to TNF stimulation of IL6 (100%), HAEC, IL6, @ 5 uM ([1]; HAEC, TNF stimulated, compound 5 uM (bracketed value), maleate salt): 25%
- IC50 ([2]; read-out: Activity (note 1), anti-proliferation assay (perlecan), maleate salt): > 7 µM

SMILES: CN1CCC(N(C)c2nc(Nc3ccc4ccccc4c3)nc(NC3CCCCCC3)n2)CC1 [N^2-cycloheptyl-N^4-methyl-N^4-(1-methyl-piperidin-4-yl)-N^6-naphthalen-2-yl-1,3,5-triazine-2,4,6-triamine]
- activity in anti-proliferation assay (Perlecan), in words [2]: high activity

SMILES: CCN1CCC[C@H]1CNc1nc(NC2CCCCCC2)nc(N(CC#N)c2ccccc2)n1 [Compound 143, ({4-cycloheptylamino-6-[((S)-1-ethyl-pyrrolidin-2-ylmethyl)-amino]-1,3,5-triazin-2-yl}-phenyl-amino)-acetonitrile]
- % IL6 production compare to TNF stimulation of IL6 (100%), Compds tested @ 10 uM HAEC, IL6 ([1]; HAEC, TNF stimulation = 100%): 18.88%
- activity at 10 µM [1, 3]: 0 to 25%

SMILES: COc1ccc(Nc2nc(NC3CC3)nc(NC3CC3)n2)cc1F [Compound 157, N,N′-dicyclopropyl-N″-(3-fluoro-4-methoxy-phenyl)-1,3,5-triazine-2,4,6-triamine]
- % IL6 production compare to TNF stimulation of IL6 (100%), Compds tested @ 10 uM HAEC, IL6 ([1]; HAEC, TNF stimulation = 100%): 60.48%
- activity at 10 µM [1, 3]: 50 to 75%

SMILES: CCN1CCC[C@@H]1CNc1nc(NCC2CCCCC2)nc(Nc2ccc(OC)c(F)c2)n1 [Compound 142, N^2-cyclohexylmethyl-N^4-((R)-1-ethyl-pyrrolidin-2-ylmethyl)-N^6-(3-fluoro-4-methoxyphenyl)-1,3,5-triazine-2,4,6-triamine]
- % IL6 production compare to TNF stimulation of IL6 (100%), Compds tested @ 10 uM HAEC, IL6 ([1]; HAEC, TNF stimulation = 100%): 21.62%
- activity at 10 µM [1, 3]: 0 to 25%

SMILES: c1ccc2cc(Nc3nc(NC4CCCCCC4)nc(N4CCOCC4)n3)ccc2c1 [Compound 174, N-Cycloheptyl-6-morpholin-4-yl-N′-naph-thalen-2-yl-[1,3,5]triazine-2,4-diamine]
- inhibition at 10 µM ([1]; Table 7, first part, read-out: Inhibition of TNF-induced IL6 production): 85 to 100%

SMILES: CCN1CCC[C@H]1CNc1nc(NCC2CCCCC2)nc(Nc2ccc(OC)c(F)c2)n1 [Compound 141, N^2-cyclohexylmethyl-N^4-((S)-1-ethyl-pyrrolidin-2-ylmethyl)-N^6-(3-fluoro-4-methoxyphenyl)-1,3,5-triazine-2,4,6-triamine]
- % IL6 production compare to TNF stimulation of IL6 (100%), Compds tested @ 10 uM HAEC, IL6 ([1]; HAEC, TNF stimulation = 100%): 23.44%
- activity at 10 µM [1, 3]: 0 to 25%

SMILES: CCN1CCCC1CNc1nc(Nc2ccc(OC)c(F)c2)nc(N2CCN(C)CC2)n1 (centres unmarked) [Compound 62, N^2-[(1-ethyl-2-pyrrolidinyl)methyl]-N^4-(3-fluoro-4-methoxyphenyl)-6-(4-methyl-1-piperazinyl)-1,3,5-triazine-2,4-diamine]
- activity at 10 µM [1, 5]: 25 to 50%

SMILES: CCN1CCCC1CNc1nc(NCc2ccccc2)nc(Nc2ccc(OC)c(F)c2)n1 (centres unmarked) [Compound 53, N^2-benzyl-N^4-[(1-ethyl-2-pyrrolidinyl)methyl]-N^6-(3-fluoro-4-methoxyphenyl)-1,3,5-triazine-2,4,6-triamine]
- activity at 10 µM [1, 3]: 0 to 25%
- activity at 10 µM [1, 5]: 25 to 50%

SMILES: CN1CCC(N(C)c2nc(Nc3ccc4ccccc4c3)nc(NC3CCCCCC3)n2)CC1 [Compound 172, N-Cycloheptyl-N′-methyl-N′-(1-methyl-piperidin-4-yl)-N″-naphthalen-2-yl-[1,3,5]tri-azine-2,4,6-triamine]
- inhibition at 10 µM [1, 6]: 85 to 100%
- inhibition at 10 µM [1, 7]: 65 to 85%
- % IL6 production compare to TNF stimulation of IL6 (100%), Compds tested @ 10 μM HAEC, IL6 ([1]; Table 7, HAEC, 10 μM compound, TNF stimulation = 100%): 18%

SMILES: CCNc1nc(NCC2CCCN2CC)nc(Nc2ccc(OC)c(F)c2)n1 (centres unmarked) [Compound 51, N^2-ethyl-N^4-[(1-ethyl-2-pyrrolidinyl)methyl]-N^6-(3-fluoro-4-methoxyphenyl)-1,3,5-triazine-2,4,6-triamine]
- activity at 10 µM [1, 3]: 0 to 25%

SMILES: COc1ccc(Nc2nc(NC3CCCCCC3)nc(N3CCCCCC3)n2)cc1F [Compound 83, N^2-cycloheptyl-N^4-(3-fluoro-4-methoxyphenyl)-6-hexahydro-1H-azepin-1-yl-1,3,5-triazine-2,4-diamine]
- activity at 10 µM [1, 3]: 0 to 25%

SMILES: CCN1CCCC1CNc1nc(NCC2CCCCC2)nc(Nc2ccc(OC)c(F)c2)n1 (centres unmarked) [Compound 65, N^2-(cyclohexylmethyl)-N^4-[(1-ethyl-2-pyrrolidinyl)methyl]-N^6-(3-fluoro-4-methoxyphenyl)-1,3,5-triazine-2,4,6-triamine]
- activity at 10 µM [1, 3]: 0 to 25%
- activity at 10 µM [1, 5]: 25 to 50%

SMILES: COc1ccc(Nc2nc(NC3CCCCCC3)nc(N3CCSCC3)n2)cc1Cl [drawing 1604]
- Inflammation Data (result in words) [1]: Not Active

SMILES: COc1ccc(Nc2nc(NC3CCCCCC3)nc(N(C)C3CCN(C)CC3)n2)cc1F [N^2-cycloheptyl-N^4-(3-fluoro-4-methoxyphenyl)-N^6-methyl-N^6-(1-methyl-piperidin-4-yl)-1,3,5-triazine-2,4,6-triamine]
- activity in anti-proliferation assay (Perlecan), in words [2]: medium or moderate activity

SMILES: CCN1CCCC1CNc1nc(Nc2ccc(C#N)cc2)nc(NC2CCCCCC2)n1 (centres unmarked) [Compound 11, 4-[(4-(cycloheptylamino)-6-{[(1-ethyl-2-pyrrolidinyl)methyl]amino}-1,3,5-triazin-2-yl)-amino]benzonitrile]
- activity at 10 µM [1, 5]: 0 to 25%

SMILES: CCN1CCCC1CNc1nc(NC2CCCCCC2)nc(N(CCC#N)c2ccccc2)n1 (centres unmarked) [Compound 41, 3-[(4-(cycloheptylamino)-6-{[(1-ethyl-2-pyrrolidinyl)methyl]amino}-1,3,5-triazin-2-yl)-(phenyl)amino]propanenitrile]
- activity at 10 µM [1, 5]: 0 to 25%

SMILES: CCN1CCC[C@@H]1CNc1nc(NC2CCCCCC2)nc(N(CC#N)c2ccccc2)n1 [Compound 144, ({4-cycloheptylamino-6-[((R)-1-ethyl-pyrrolidin-2-ylmethyl)-amino]-1,3,5-triazin-2-yl}-phenyl-amino)-acetonitrile]
- activity at 10 µM [1, 3]: 0 to 25%

SMILES: CCNc1nc(Nc2ccc(OC)c(F)c2)nc(NC2CCCCCC2)n1 [Compound 76, N^2-cycloheptyl-N^4-ethyl-N^6-(3-fluoro-4-methoxyphenyl)-1,3,5-triazine-2,4,6-triamine]
- activity at 10 µM [1, 3]: 0 to 25%

SMILES: CN1CCC(N(C)c2nc(NCCC3OCCO3)nc(Nc3ccc4ccccc4c3)n2)CC1 [Compound 179, N-(2-[1,3]Dioxolan-2-yl-ethyl)-N′-methyl-N′-(1-meth-yl-piperidin-4-yl)-N″-naphthalen-2-yl-[1,3,5]tri-azine-2,4,6-triamine]
- inhibition at 10 µM [1, 6]: 65 to 85%
- inhibition at 10 µM [1, 7]: 50 to 65%

SMILES: CCN1CCCC1CNc1nc(Nc2ccc(NC(C)=O)cc2)nc(NC2CCCCCC2)n1 (centres unmarked) [Compound 29, N-{4-[(4-(cycloheptylamino)-6-{[(1-ethyl-2-pyrrolidinyl)methyl]amino}-1,3,5-triazin-2-yl)-amino]phenyl}acetamide]
- activity at 10 µM [1, 3]: 0 to 25%
- activity at 10 µM [1, 5]: 0 to 25%

SMILES: COc1ccc(Nc2nc(NC3CCCCCC3)nc(OCC3CCCN3)n2)cc1Cl (centres unmarked) [drawing 1599]
- Proliferation Data (result in words) [2]: Not active at 5 & 10 uM

SMILES: COc1ccc(Nc2nc(NC3CC3)nc(N(C)C3CCN(C)CC3)n2)cc1Cl
- Inflammation Data, cell death at 10 uM ([1]; 10 uM): 15%
- Inflammation Data (result in words) [1]: Not active

Reference: patent US7332489B2, “Methods and compositions of novel triazine compounds” (Reddy US Therapeutics, Inc., priority 2003, dated 2008)
